Results on 17 compounds are retold here after US10800772B2 (Gilead Sciences, Inc., priority 2016, dated 2020).

One data set has as its system HIV-IIIb (wildtype). Kind of data set: Antiviral assay in MT4 cells, HIV-IIIb wildtype. It counts as cell-based, HIV-1. The settings on record: read-out: WT EC50. The gist of the method: (§1)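 Luminescence from CellTiter-Glo after a 5-day culture served as the measure of HIV-1 replication in MT4 cells. Cells were infected beforehand for 3 h with HIV-IIIb (0.004 m.o.i.) and exposed to ten 3-fold compound dilutions. EC50 corresponds to a 50% signal decrease.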

In the next data set the test system is HIV-IIIb IN T174I BT. Kind of data set: Antiviral assay in MT4 cells, HIV-IIIb IN T174I BT virus (from viral breakthrough). It counts as cell-based, HIV-1. Particulars: Human immunodeficiency virus 1, IIIB, MT4, 120 h, read-out: T174I BT EC50, MT4 cells, HIV-IIIb IN T174I BT (viral breakthrough), 5 days, CellTiter-Glo. The essentials: as §1
The next data set concerns HIV-IIIb IN T174I DE. Kind of data set: Antiviral assay in MT4 cells, HIV-IIIb IN T174I DE virus (from dose escalation passaging). It counts as cell-based, HIV-1. Particulars: Human immunodeficiency virus 1, IIIB, MT4, 120 h, read-out: T174I DE EC50, MT4 cells, HIV-IIIb IN T174I DE (dose escalation), 5 days, CellTiter-Glo. The essentials:
as §1

A further data set can be described thus: in vitro. Particulars: human, microsomes.
A short description of data set [1]: Hum MS stability (human microsomal stability half-life). Particulars: human microsomes.
The mark [2] stands for this setting: Human immunodeficiency virus 1, IIIB, MT4, 120 h.

Like-named read-outs stand apart in the source and are kept apart here.

For the compound `Cc1cc2nc(-c3ccc4c(c3)c(C3CCN(C5CC5)CC3)nn4C)sc2c(-c2ccc(Cl)cc2)c1[C@H](OC(C)(C)C)C(=O)O` [Compound 128, (S)-2-(tert-butoxy)-2-(7-(4-chloro-phenyl)-2-(3-(1-cyclopropylpiperidin-4-yl)-1-methyl-1H-indazol-5-yl)-5-methylbenzo[d]thiazol-6-yl) acetic acid], the EC50 came to 4 nM in the data set on HIV-IIIb (wildtype) (Human immunodeficiency virus 1, 120 h, MT4 cells, HIV-IIIb wildtype, 5 days, CellTiter-Glo); 292 nM with HIV-IIIb IN T174I BT; 511 nM in the data set with HIV-IIIb IN T174I DE. Further, the half-life in the data set “in vitro” is 4.03 h.
As for `Cc1cc2nc(-c3ccc4c(c3)c(C3CCN(C5CCOC5)CC3)nn4C)sc2c(-c2ccc(Cl)cc2)c1[C@H](OC(C)(C)C)C(=O)O` (stereo in doubt) [Compound 27, (S)-2-(tert-butoxy)-2-(7-(4-chlorophenyl)-5-methyl-2-(1-methyl-3-(1-((R)-tetrahydrofuran-3-yl)piperidin-4-yl)-1H-indazol-5-yl)benzo[d]thiazol-6-yl)acetic Acid], the EC50 in the data set with HIV-IIIb (wildtype) (setting [2]) turned out to be 4 nM; in the data set with HIV-IIIb IN T174I BT it was 154 nM; with HIV-IIIb IN T174I DE it was 245 nM. The same compound came in with a half-life in data set [1] of 4.17 h.
Take `COCCOC1CN(c2nn(C)c3ccc(-c4nc5cc(C)c([C@H](OC(C)(C)C)C(=O)O)c(-c6ccc(Cl)cc6)c5s4)cc23)C1` [Compound 134, (S)-2-(tert-butoxy)-2-(7-(4-chloro-phenyl)-2-(3-(3-(2-methoxyethoxy)azetidin-1-yl)-1-methyl-1H-indazol-5-yl)-5-methylbenzo[d]thiazol-6-yl) acetic acid]: the EC50 in the data set on HIV-IIIb (wildtype) (setting [2]) stood at 13 nM; in the data set on HIV-IIIb IN T174I BT it was 1160 nM; in the data set with HIV-IIIb IN T174I DE it was 2240 nM. This compound also gave a half-life in data set [1] of 1.48 h.
Regarding `Cc1cc2nc(-c3ccc4c(n3)c(C3CCN(C5CN(C)C5)CC3)nn4C)sc2c(-c2ccc(Cl)cc2)c1[C@H](OC(C)(C)C)C(=O)O` [Compound 184, (S)-2-(tert-butoxy)-2-(7-(4-chloro-phenyl)-5-methyl-2-(1-methyl-3-(1-(1-methylazetidin-3-yl)piperidin-4-yl)-1H-pyrazolo [4,3-b]pyridin-5-yl)benzo[d]thiazol-6-yl) acetic acid], the EC50 in the data set with HIV-IIIb (wildtype) (setting [2]) was determined as 4 nM; in the data set on HIV-IIIb IN T174I BT it was 103 nM; in the data set with HIV-IIIb IN T174I DE, 218 nM. Also, in data set [1], the half-life amounted to 0.767 h.
Consider `COCC(COC)N1CC(c2nn(C)c3ccc(-c4nc5cc(C)c([C@H](OC(C)(C)C)C(=O)O)c(-c6ccc(Cl)cc6)c5s4)cc23)C1` [Compound 61, (S)-2-(tert-butoxy)-2-(7-(4-chlorophenyl)-2-(3-(1-(1,3-dimethoxypropan-2-yl)azetidin-3-yl)-1-methyl-1H-indazol-5-yl)-5-methylbenzo[d]thiazol-6-yl)acetic acid], for which the EC50 worked out at 7 nM with HIV-IIIb (wildtype) (setting [2]), 1610 nM in the data set with HIV-IIIb IN T174I BT and 2700 nM in the data set with HIV-IIIb IN T174I DE. For the same compound, in data set [1], the half-life came to 3.62 h.
As to `COCCN1CCC(c2nn(C)c3ccc(-c4nc5cc(C)c([C@H](OC(C)(C)C)C(=O)O)c(-c6ccc(Cl)cc6)c5s4)cc23)CC1` [Compound 125, (S)-2-(tert-butoxy)-2-(7-(4-chloro-phenyl)-2-(3-(1-(2-methoxyethyl)piperidin-4-yl)-1-methyl-1H-indazol-5-yl)-5-methylbenzo[d]thiazol-6-yl) acetic acid], the EC50 with HIV-IIIb (wildtype) (setting [2]) was 8 nM; in the data set on HIV-IIIb IN T174I BT it was 400 nM; with HIV-IIIb IN T174I DE it was 715 nM. In data set [1], the half-life worked out at 4.38 h.
With `COC1CN(c2nn(C)c3ccc(-c4nc5cc(C)c([C@H](OC(C)(C)C)C(=O)O)c(-c6ccc(Cl)cc6)c5s4)cc23)C1` [Compound 2, (S)-2-(tert-butoxy)-2-(7-(4-chlorophenyl)-2-(3-(3-methoxyazetidin-1-yl)-1-methyl-1H-indazol-5-yl)-5-methylbenzo[d]thiazol-6-yl)acetic Acid], the EC50 with HIV-IIIb (wildtype) (setting [2]) is 7 nM; in the data set on HIV-IIIb IN T174I BT, 1020 nM; with HIV-IIIb IN T174I DE, 2580 nM. In data set [1], this compound yielded a half-life of 1.82 h.
Consider `Cc1cc2nc(-c3cnc4c(c3)c(C3CCN(C5COC5)CC3)cn4C)sc2c(-c2ccc(Cl)cc2)c1[C@H](OC(C)(C)C)C(=O)O` [Compound 17, (S)-2-(tert-butoxy)-2-(7-(4-chlorophenyl)-5-methyl-2-(1-methyl-3-(1-(oxetan-3-yl)piperidin-4-yl)-1H-pyrrolo[2,3-b]pyridin-5-yl)benzo[d]thiazol-6-yl)acetic Acid], for which the EC50 with HIV-IIIb (wildtype) (setting [2]) is 8 nM; in the data set with HIV-IIIb IN T174I BT it was 238 nM; with HIV-IIIb IN T174I DE, 786 nM. In data set [1], the half-life stood at 4.7 h.
Regarding `Cc1cc2nc(-c3ccc4c(c3)c(N3CC[C@@H](N(C)C)C3)nn4C)sc2c(-c2ccc(Cl)cc2)c1[C@H](OC(C)(C)C)C(=O)O` [Compound 92, (S)-2-(tert-butoxy)-2-(7-(4-chlorophenyl)-2-(3-((R)-3-(dimethylamino)pyrrolidin-1-yl)-1-methyl-1H-indazol-5-yl)-5-methylbenzo[d]thiazol-6-yl)acetic acid], the figures for the EC50 in the data set with HIV-IIIb (wildtype) (setting [2]), in the data set on HIV-IIIb IN T174I BT and with HIV-IIIb IN T174I DE were 14 nM, 938 nM and 1940 nM, respectively. Further, in data set [1], the half-life was determined as 6.05 h.
`Cc1cc2nc(-c3ccc4c(c3)c(C3CCN(S(C)(=O)=O)CC3)nn4C)sc2c(-c2ccc(Cl)cc2)c1[C@H](OC(C)(C)C)C(=O)O` [Compound 25, (S)-2-(tert-butoxy)-2-(7-(4-chlorophenyl)-5-methyl-2-(1-methyl-3-(1-(methylsulfonyl)piperidin-4-yl)-1H-indazol-5-yl)benzo[d]thiazol-6-yl)acetic acid]: the EC50 in the data set with HIV-IIIb (wildtype) (setting [2]) was determined as 10 nM; in the data set with HIV-IIIb IN T174I BT, 404 nM; in the data set with HIV-IIIb IN T174I DE, 806 nM. In data set [1], this compound returned a half-life of 4.25 h.
As to `Cc1cc2nc(-c3ccc4c(n3)c(C3CCN([C@H]5CCN(C)C5)CC3)nn4C)sc2c(-c2ccc(Cl)cc2)c1[C@H](OC(C)(C)C)C(=O)O` [Compound 172, (S)-2-(tert-butoxy)-2-(7-(4-chloro-phenyl)-5-methyl-2-(1-methyl-3-(1-((S)-1-methyl-pyrrolidin-3-yl)piperidin-4-yl)-1H-pyrazolo[4,3-b]pyridin-5-yl)benzo[d]thiazol-6-yl)acetic acid], the values for the EC50 in the data set on HIV-IIIb (wildtype) (setting [2]), in the data set on HIV-IIIb IN T174I BT and in the data set on HIV-IIIb IN T174I DE were 5 nM, 54 nM and 118 nM, respectively. The compound further registered a half-life in data set [1] of 0.933 h.
For the compound `Cc1cc2nc(-c3ccc4c(c3)c(C3CCN(C5COC5)C3)nn4C)sc2c(-c2ccc(Cl)cc2)c1[C@H](OC(C)(C)C)C(=O)O` (stereo partly drawn) [Compound 70, (2S)-2-(tert-butoxy)-2-(7-(4-chlorophenyl)-5-methyl-2-(1-methyl-3-(1-(oxetan-3-yl)pyrrolidin-3-yl)-1H-indazol-5-yl)benzo[d]thiazol-6-yl)acetic acid], the EC50 with HIV-IIIb (wildtype) (setting [2]) stood at 7 nM; in the data set with HIV-IIIb IN T174I BT it was 587 nM; in the data set with HIV-IIIb IN T174I DE it was 942 nM. The compound also came in with a half-life in data set [1] of 5.87 h.
Regarding `Cc1cc2nc(-c3ccc4c(c3)c(C3CCOCC3)nn4C)sc2c(-c2ccc(Cl)cc2)c1[C@H](OC(C)(C)C)C(=O)O` [Compound 19, (S)-2-(tert-butoxy)-2-(7-(4-chlorophenyl)-5-methyl-2-(1-methyl-3-(tetrahydro-2H-pyran-4-yl)-1H-indazol-5-yl)benzo[d]thiazol-6-yl)acetic Acid], the EC50 with HIV-IIIb (wildtype) (setting [2]) was found to be 12 nM; with HIV-IIIb IN T174I BT, 1170 nM; in the data set with HIV-IIIb IN T174I DE it was 2780 nM. The half-life in data set [1] came out at 4.15 h.
Take `Cc1cc2nc(-c3ccc4c(c3)c(N3CC(C)(C)N(C)C3=O)nn4C)sc2c(-c2ccc(Cl)cc2)c1[C@H](OC(C)(C)C)C(=O)O` [Compound 122, (S)-2-(tert-butoxy)-2-(7-(4-chlorophenyl)-5-methyl-2-(1-methyl-3-(3,4,4-trimethyl-2-oxoimidazolidin-1-yl)-1H-indazol-5-yl)benzo[d]thiazol-6-yl)acetic acid]: the EC50 with HIV-IIIb (wildtype) (setting [2]) is 14 nM; in the data set with HIV-IIIb IN T174I BT, 1440 nM; in the data set on HIV-IIIb IN T174I DE, 3810 nM. The same compound gave a half-life in data set [1] of 4.48 h.
The matching figures for `Cc1cc2nc(-c3ccc4c(c3)c(C3CCOC3)nn4C)sc2c(-c2ccc(Cl)cc2)c1[C@H](OC(C)(C)C)C(=O)O` (stereo partly drawn) [Compound 52, (2S)-2-(tert-butoxy)-2-(7-(4-chlorophenyl)-5-methyl-2-(1-methyl-3-(tetrahydrofuran-3-yl)-1H-indazol-5-yl)benzo[d]thiazol-6-yl)acetic acid]: 8 nM, 905 nM, 946 nM and 3.72 h.
The matching figures for `COCCOC(=O)N1CCC(c2nn(C)c3ccc(-c4nc5cc(C)c([C@H](OC(C)(C)C)C(=O)O)c(-c6ccc(Cl)cc6)c5s4)cc23)C1` (stereo partly drawn) [Compound 73, (2S)-2-(tert-butoxy)-2-(7-(4-chlorophenyl)-2-(3-(1-((2-methoxyethoxy)carbonyl)pyrrolidin-3-yl)-1-methyl-1H-indazol-5-yl)-5-methylbenzo[d]thiazol-6-yl)acetic acid]: 6 nM, 720 nM, 823 nM and 3.05 h.
On the same counts, the results for `CCOCCN1CCN(c2nn(C)c3ccc(-c4nc5cc(C)c([C@H](OC(C)(C)C)C(=O)O)c(-c6ccc(Cl)cc6)c5s4)cc23)CC1` [Compound 99, (S)-2-(tert-butoxy)-2-(7-(4-chlorophenyl)-2-(3-(4-(2-ethoxyethyl)piperazin-1-yl)-1-methyl-1H-indazol-5-yl)-5-methylbenzo[d]thiazol-6-yl)acetic Acid] are 6 nM, 485 nM, 759 nM and 4.33 h.
